According to PMC7457533, “Characterization of thrombin/factor Xa inhibitors in Rhizoma Chuanxiong through UPLC-MS-based multivariate statistical analysis” (Chinese Medicine, 2020):

Target: T1, thrombin (THR) (Homo sapiens, UniProt P00734)
T1 construct: gene F2
Assay: capillary electrophoresis immobilized enzyme microreactor, S-2238; percent inhibition at […]
Type: biochemical
Conditions: read-out: Inhibition percentage (%)

CCC/C=C1\OC(=O)C2=C1CCC=C2 [d, Z-ligustilide]
inhibition at 500 µM: 36.9 ± 2.37%

CCCCC1OC(=O)C2=C1CCC=C2 (centres unmarked) [a, Senkyunolide A]
inhibition at 500 µM: 41.9 ± 1.84%
